The results in this text go back to US20240285557A1, “PHARMACEUTICAL COMPOSITION COMPRISING LIPASE INHIBITOR FOR TREATMENT OR TREATMENT OF RNA VIRAL INFECTIONS” (priority 2021, published 2024).

Where two headings read alike, the source gives them in different places.

Data set [1] in a line: MTT half-maximal cytotoxic concentration (CC50). The conditions noted are these: dog.
Data set [2] relates to Vero E6 cells.
Experimental: (§1) To determine the half-maximal cytotoxic concentration (CC50) of the lipase inhibitors atglistatin and CAY10499, Vero E6, A549, HRT-18G, MA104, MARC-145, and LLC-PK cells were prepared in monolayers in 96-well plates.
(§2) The cells were treated with the drugs for 24 hours, and the culture media was removed before addition of 200 μL of 3-(4,5-dimethylthiazol-2-yl)-2,5-diphenyl tetrazolium bromide (MTT) solution to each well. The plates were then incubated for 4 hours in a 5% CO2 incubator at 36° C. Subsequently, 150 μL of DMSO solution was added to each well and incubated at 20° C. The optical density (OD) was measured at 570 nm wavelength using an enzyme-linked immunosorbent assay (ELISA) reader.
In data set [3] the test system is LLC-PK cells.
Experimental: as §1, §2
Data set [4] has as its system A549 cells.
Experimental: as §1, §2
In data set [5] the test system is MARC cells.
Experimental: as §1, §2
Data set [6] has as its system MDCK cells.
Data set [7] relates to A549, Vero E6, MDCK, HRT18G, MA04, MARC, and LLC-PK cells.
Experimental: as §1, §2
The test system of data set [8] is HRT18G cells. The experiment in a line: MTT half-maximal cytotoxic concentration (CC50). The conditions noted are these: drugs for 24 hours.
Experimental: as §1, §2
Data set [9] relates to MARC cells. As to the kind of experiment: MTT half-maximal cytotoxic concentration (CC50). As to conditions: MARC; drugs for 24 hours, MTT.
Experimental: as §1, §2
The subject of data set [10] is A549 cells. As to the kind of experiment: MTT half-maximal cytotoxic concentration (CC50). As to conditions: drugs for 24 hours.
Experimental: as §1, §2
Data set [11] deals with Vero E6 cells. The experiment in a line: MTT half-maximal cytotoxic concentration (CC50). The conditions noted are these: Vero E6; drugs for 24 hours, MTT.
Experimental: as §1, §2
Data set [12] is described as follows: MTT half-maximal cytotoxic concentration (CC50). As to conditions: African green monkey.
Experimental: as §1, §2
The nature of data set [13]: MTT half-maximal cytotoxic concentration (CC50). The conditions noted are these: African green monkey. This is another data set of the same source.
Experimental: as §1, §2

As usually defined, the CC50 is the concentration at which the toxic effect on the cells reaches its halfway point. In the case of `CN(C)C(=O)Nc1cccc(-c2ccc(N(C)C)cc2)c1` [Atglistatin, 3-(4′-(dimethylamino)-(1,1′-biphenyl)-3-yl)-1,1-dimethylurea], the CC50 at 24 h in data set [1] amounted to 269 µM.

Turning to `COc1nn(-c2ccc(NC(=O)OCc3ccccc3)c(C)c2)c(=O)o1` [CAY10499], the CC50 is 102 µM in [2]; 109 µM in [3]; 106 µM in data set [4]; 101 µM in data set [5]; 110 µM in data set [6]; 101 to 110 µM in [7].

On to `CCN(CC)C(=O)Nc1cccc(-c2ccc(N(C)C)cc2)c1` [DABPU-DE], for which the CC50 in data set [8] is 177 µM; in data set [9], 216 µM; in [10], 213 µM; in data set [11], 222 µM.

On to `CCN(C)C(=O)Nc1cccc(-c2ccc(N(C)C)cc2)c1` [DABPU-EM, 3-(4′-(dimethylamino)-(1,1′-biphenyl)-3-yl)-1-ethyl-1-methylurea], for which the CC50 at 24 h in data set [12] and in [13] was 210 µM each time.
